Assay results: patent US20240216357A1 (SICHUAN HUIYU PHARMACEUTICAL CO., LTD., priority 2021, published 2024)
Structures can show the parent of a compound that is named as a salt.

Tests used:
[1] = target: LSD1 (Homo sapiens (Human), UniProt O60341); test: LSD1 enzyme activity detection (HTRF); format: biochemical; conditions: HTRF, H3K4me1 substrate; read-out: Inhibition of enzymatic activity of LSD1 IC50
[2] = system: NCI-H1417 cells; test: In vitro cell proliferation detection (CellTiter-Glo, 7 days); format: cell-based; conditions: Homo sapiens, 168 h; NCI-H1417 cells, 7 days, CellTiter-Glo; read-out: NCI-H1417 proliferation inhibition IC50

SMILES	IC50 [1]	IC50 [2]
N#Cc1ccc(-c2nc(N3CCC(N)CC3)n3ccnc3c2-c2ccc3[nH]nc(Cl)c3c2)cc1F [Example 123, 4-(5-(4-aminopiperidin-1-yl)-8-(3-chloro-1H-indazolo-5-yl)imidazolo[1,2-c]pyrimidin-7-yl)-2-fluorobenzonitrile]	28.7 nM	47.6 nM
CC(C)(O)C#Cc1ccc(-c2c(-c3ccc(C#N)c(F)c3)nc(N3CCC(N)CC3)n3ccnc23)cc1F [Example 126, 4-(5-(4-aminopiperidin-1-yl)-8-(3-fluoro-4-(3-hydroxy-3-methyl-1-alkynyl-1-yl)phenyl)imidazolo[1,2-c]pyrimidin-7-yl)-2-fluorobenzonitrile hydrochloride]	15.9 nM	21.3 nM
CC(C)(O)Cn1ncc2cc(F)c(-c3c(-c4ccc(C#N)c(F)c4)nc(N4CCC(N)CC4)n4ccnc34)cc21 [Example 127, 4-(5-(4-aminopiperidin-1-yl)-8-(5-fluoro-1-(2-hydroxy-2-methylpropyl)-1H-indazo-6-yl)imidazolo[1,2-c]pyrimidin-7-yl)-2-fluorobenzonitrile hydrochloride]	34.4 nM	135 nM
N#Cc1ccc(-c2nc(N3CCC(N)CC3)n3ccnc3c2-c2ccc3oc(=O)[nH]c3c2)cc1F [Example 129, 4-(5-(4-aminopiperidin-1-yl)-8-(2-oxo-2,3-dihydrobenzo[d]oxazol-5-yl)imidazolo[1,2-c]pyrimidin-7-yl)-2-fluorobenzonitrile]	0.61 ± 0.13 nM	112 nM
N#Cc1ccc(-c2nc(N3CCC(N)CC3)n3ccnc3c2-c2ccc(OC(F)(F)F)c(F)c2)cc1F [Example 130, 4-(5-(4-aminopiperidin-1-yl)-8-(3-fluoro-4-(trifluoromethoxy)phenyl)imidazolo [1,2-c]pyrimidin-7-yl)-2-fluorobenzonitrile]	10.7 nM	17.6 nM
N#Cc1ccc(-c2nc(N3CCC(N)CC3)n3ccnc3c2-c2ccn3ccnc3c2)cc1F [Example 131, 4-(5-(4-aminopiperidin-1-yl)-8-(imidazolo [1,2-a]pyridin-7-yl)imidazolo[1,2-c]pyrimidin-7-yl)-2-fluorobenzonitrile]	4.46 ± 0.09 nM	80.7 nM
CNC1CCN(c2nc(-c3ccc(C#N)c(F)c3)c(-c3ccc(OC)c(O)c3)c3nccn23)CC1 [Example 138, 2-fluoro-4-(8-(3-hydroxy-4-methoxyphenyl)-5-(4-(methylamino)piperidin-1-yl)imidazolo[1,2-c]pyrimidin-7-yl)benzonitrile hydrochloride]	0.1 ± 0.05 nM	0.305 nM
COc1ccc(-c2c(-c3ccc(C#N)c(F)c3)nc(N3CCC[C@@H](N)C3)n3ccnc23)cc1O [Example 139, (R)-4-(5-(3-aminopiperidin-1-yl)-8-(3-hydroxy-4-methoxyphenyl)imidazolo[1,2-c]pyrimidin-7-yl)-2-fluorobenzonitrile hydrochloride]	0.69 ± 0.18 nM	2.83 nM
COc1ccc(-c2c(-c3ccc(C#N)c(F)c3)nc(N3CCC(N(C)C)CC3)n3ccnc23)cc1O [Example 140, 4-(5-(4 (dimethylamino)piperidin-1-yl)-8-(3-hydroxy-4-methoxyphenyl)imidazolo[1,2-c]pyrimidin-7-yl)-2-fluorobenzonitrile]	0.4 ± 0.1 nM	0.2 ± 0.15 nM
N#Cc1ccc(-c2nc(N3CCC(N)CC3)n3ccnc3c2-c2ccc(Cl)c(O)c2)cc1F [Example 142, 4-(5-(4-aminopiperidin-1-yl)-8-(4-chloro-3-hydroxyphenyl)imidazolo[1,2-c]pyrimidin-7-yl)-2-fluorobenzonitrile formate]	0.198 nM	0.214 nM
COc1ccc(-c2c(-c3ccc(C#N)c(F)c3)nc(N3CCC(C)(N)CC3)n3ccnc23)cc1O [Example 143, 4-(5-(4-amino-4-methylpiperidin-1-yl)-8-(3-hydroxy-4-methoxyphenyl)imidazolo[1,2-c]pyrimidin-7-yl)-2-fluorobenzonitrile]	5.5 ± 2.9 nM	4.82 nM
COc1ccc(-c2c(-c3ccc(C#N)c(F)c3)nc(N(C)CCCN)n3ccnc23)cc1O [Example 144, 4-(5-((3-aminopropyl) (methyl)amino)-8-(3-hydroxy-4-methoxyphenyl)imidazolo[1,2-c]pyrimidin-7-yl)-2-fluorobenzonitrile]	1.6 ± 0.2 nM	18.2 nM
Cc1ccc(-c2c(-c3ccc(C#N)c(F)c3)nc(N3CCC(C)(N)CC3)n3ccnc23)cc1O [Example 145, 4-(5-(4-amino-4-methylpiperidin-1-yl)-8-(3-hydroxy-4-methylphenyl)imidazolo[1,2-c]pyrimidin-7-yl)-2-fluorobenzonitrile]	1 ± 0.2 nM	2.42 nM
Cc1ccc(-c2c(-c3ccc(C#N)c(F)c3)nc(N(C)CCCN)n3ccnc23)cc1O [Example 146, 4-(5-((3-aminopropyl) (methyl)amino)-8-(3-hydroxy-4-methylphenyl)imidazolo[1,2-c]pyrimidin-7-yl)-2-fluorobenzonitrile]	0.5 ± 0.2 nM	8.9 nM
CC1(N)CCN(c2nc(-c3ccc(C#N)c(F)c3)c(-c3ccc(F)c(O)c3)c3nccn23)CC1 [Example 147, 4-(5-(4-amino-4-methylpiperidin-1-yl)-8-(4-fluoro-3-hydroxyphenyl)imidazolo[1,2-c]pyrimidin-7-yl)-2-fluorobenzonitrile]	11.5 ± 4.4 nM	8 nM
CN(CCCN)c1nc(-c2ccc(C#N)c(F)c2)c(-c2ccc(F)c(O)c2)c2nccn12 [Example 148, 4-(5-((3-aminopropyl) (methyl)amino)-8-(4-fluoro-3-hydroxyphenyl)imidazolo [1,2-c]pyrimidin-7-yl)-2-fluorobenzonitrile]	6.9 ± 1.3 nM	78 nM
Cc1noc2cc(-c3c(-c4ccc(C#N)c(F)c4)nc(N4CCC(C)(N)CC4)n4ccnc34)c(F)cc12 [Example 149, 4-(5-(4-amino-4-methylpiperidin-1-yl)-8-(5-fluoro-3-methylbenzo [d]isoxazol-6-yl)imidazolo[1,2-c]pyrimidin-7-yl)-2-fluorobenzonitrile]	33.2 nM	12.8 nM
Cc1noc2cc(-c3c(-c4ccc(C#N)c(F)c4)nc(N(C)CCCN)n4ccnc34)c(F)cc12 [Example 150]	20.3 nM	31.2 nM
CC1(N)CCN(c2nc(-c3ccc(C#N)c(F)c3)c(-c3ccc(OC(F)(F)F)c(O)c3)c3nccn23)CC1 [Example 152, 4-(5-(4-amino-4-methylpiperidin-1-yl)-8-(3-hydroxy-4-(trifluoromethoxy)phenyl)imidazolo [1,2-c]pyrimidin-7-yl)-2-fluorobenzonitrile]	23.5 nM	12.4 nM
CN(CCCN)c1nc(-c2ccc(C#N)c(F)c2)c(-c2ccc(OC(F)(F)F)c(O)c2)c2nccn12 [Example 153, 4-(5-((3-aminopropyl) (methyl)amino)-8-(3-hydroxy-4-(trifluoromethoxy)phenyl)imidazolo [1,2-c]pyrimidin-7-yl)-2-fluorobenzonitrile]	5.2 ± 0.5 nM	31.6 nM
N#Cc1ccc(-c2nc(N3CCC(N)CC3)n3ccnc3c2-c2ccc(C(F)(F)F)c(O)c2)cc1F [Example 154, 4-(5-(4-aminopiperidin-1-yl)-8-(3-hydroxy-4-(trifluoromethyl)phenyl)imidazolo [1,2-c]pyrimidin-7-yl)-2-fluorobenzonitrile carboxylate]	0.5 ± 0.1 nM	0.959 nM
